Results from patent publication US20230398228A1, “ERIBULIN-BASED ANTIBODY-DRUG CONJUGATES AND METHODS OF USE” (EISAI R&D MANAGEMENT CO., LTD., priority 2016, published 2023).
Values joined by “and” are separate entries in the source; they are usually repeats but may differ in a detail not shown here. Equal entries are not always repeated.

How the values were obtained:
HL-60 cells = experiment: Bystander killing assay, Nuclight Red HL-60; assay type: cell-based, human; settings: Homo sapiens; HL-60 cells treated with free eribulin; read-out: EC50, HL-60 (eribulin)
Experimental: The day before study commencement, Nuclight™ Green (NLG) IGROV1 cells were seeded at 5,000 cells/well into 96-well round bottom plates, followed by centrifugation at 1,000 rpm for 3 min at room temperature to ensure formation of a cell pellet. The plate was placed in the vessel of an Incucyte Zoom® (EssenBio science) and incubated at 37° C./5% CO2 overnight. The program was set to collect images of cell growth, and to determine total numbers of nuclear green-stained and nuclear red-stained cells as well as phase-confluency of the cells every two hours. […] 50 μL of cytotoxin solution was added to the NLG-IGROV1 cells and incubated for 30 min. During the incubation period, Nuclight™ Red (NLR) HL-60 (FR^neg) cells were diluted to 2×10^5, 1×10^5 or 5×10^4 cell/mL with fresh media. 50 μL of the NLR-HL60 cell suspension or medium alone was added to the NLG-IGROV1 wells, followed by centrifugation at 1,000 rpm for 3 min at room temperature to ensure re-formation of the cell pellet. The plate was placed back into the vessel of Incucyte Zoom (EssenBio science) and incubated at 37° C./5% CO2 for up to 5 days. Relative cell growth of NLG-IGROV1 was determined by comparison to no ADC or free drug alone added samples using green cell counts. Relative cell growth of HL60 was done similarly, except that red cell count was determined. Determination of IC50 values for both NLG-IGROV1 and NLR-HL-60 was determined using Prism (GraphPad).
In order to assess bystander killing activity, an assay was set up using two labeled cell lines. […] Cytotoxicity was monitored by an Incucyte Zoom® cell imager.

[1] = Maximum tolerated dose of eribulin in CD-1 mice; assay type: in vivo, mouse; settings: for toxicity, in words: q4dx3
Experimental: Naïve CD-1 mice were injected intravenously with 200 μL of eribulin according to the schedule in Table 22. Body weight was measured three times a week including prior to dose on each dosing day and 24 hours following each dose. […] The terminal body weight was measured and recorded. Euthanized mice at the end of the study (and if any mouse euthanized or found dead during the study) were processed for necropsy. Organs were examined for signs of tissue damage.

[2] = tested on: human BM-MSCs co-cultured with MKN-74 cells; experiment: 3D co-culture system (rStomach, zPredicta), MSC differentiation by flow cytometry; assay type: cell-based; settings: 7 days treatment, MORAb-202 10 nM, MORAb-003 10 nM, eribulin […] and 0.2 nM (Table 41)
Experimental: All mesenchymal stem cell (MSC)-containing 3D co-culture experiments were conducted in zPredicta, using organ-specific 3D extracellular matrix systems such as rStomach™. Bone marrow mesenchymal stem cells (BM-MSCs) in rStomach™ were co-cultured with the Nuc Red Light MKN-74 gastric cancer cell line in quadruplicate in 48-well format for 12 days. […] Prior to culture, BM-MSCs were evaluated for target antigen expression and for markers of MSC differentiation (Table 40) by flow cytometry.
Controls included untreated and vehicle-treated (PBS and DMSO) cultures. MSC differentiation was monitored by light microscopy. Once visible differentiation was observed, samples were harvested for staining and flow cytometry analysis.
Bone marrow mesenchymal stem cells (BM-MSCs) in rStomach™ (zPredicta) were co-cultured with the MKN-74 gastric cancer cell line for 12 days. […] Once visible MSC differentiation was observed by light microscopy, samples were harvested for staining and flow cytometry analysis.

IGROV1 cells = experiment: Crystal Violet cytotoxicity assay (Example 4), IGROV1; assay type: cell-based, human; settings: Homo sapiens, IGROV-1, mean of replicate experiments, read-out: Cytotoxicity IC50 (nM), IGROV1 (FR^hi, MSLN^neg)
Experimental: (§1) Test reagents were serial diluted 1:3 in 2 mL deep-well dilution plates, starting at 200 nM (10 dilutions total). […] Medium was then discarded. […] Plates were read at 570 nm. Data was analyzed using GraphPad Prism 6.

NCI-H2110 cells = experiment: Crystal Violet cytotoxicity assay (Example 4), NCI-H2110; assay type: cell-based, human; settings: Homo sapiens, mean of replicate experiments, read-out: Cytotoxicity IC50 (nM), NCI-H2110 (FR^med, MSLN^med)
Experimental: as §1

A431 cells = experiment: Crystal Violet cytotoxicity assay (Example 4), A431 (parental); assay type: cell-based, human; settings: Homo sapiens, A-431, mean of replicate experiments, read-out: Cytotoxicity IC50 (nM), A431 (FR^neg, MSLN^neg)
Experimental: Test reagents were serial diluted 1:3 in 2 mL deep-well dilution plates, starting at 200 nM (10 dilutions total). […] Medium was then discarded. […] Plates were read at 570 nm. Data was analyzed using GraphPad Prism 6. […]
MAL-PEG2-Val-Cit-PAB-eribulin (ER-001159569) was conjugated to eight different anti-human mesothelin antibodies (Table 1). Binding affinities of the parental antibodies were determined by BIAcore analysis, as described above in section 1.6.1. Aggregation levels for all anti-human mesothelin ADCs were determined by SEC-HPLC and the DAR was analyzed using HIC-HPLC. In vitro potency was evaluated using a Crystal Violet cell-based cytotoxicity assay in A3 (A431 stabily transfected with human mesothelin (MSLN), MSLN^hi), OVCAR3 (human ovarian, MSLN^hi), HEC-251 (human endometroid, MSLN^med), H226 (human lung squamous cell mesothelioma, MSLN^lo), and A431 parental (MSLN^neg) cells.

NCI-N87 cells = experiment: Crystal Violet cytotoxicity assay (Example 4), NCI-N87; assay type: cell-based, human; settings: Homo sapiens; NCI-N87-Luc cells; mean of replicate experiments; read-out: Cytotoxicity IC50 (nM), NCI-N87-Luc (FR^lo, MSLN^med, her2^hi)
Experimental: as §1

BT-474 cells = experiment: Crystal Violet cytotoxicity assay (Example 4), BT-474; assay type: cell-based, human; settings: Homo sapiens; BT-474 cells; mean of replicate experiments; read-out: Cytotoxicity IC50 (nM), BT-474 (FR^neg, MSLN^neg, her2^hi)
Experimental: as §1

ZR-75 cells = experiment: Crystal Violet cytotoxicity assay (Example 4), ZR-75; assay type: cell-based, human; settings: Homo sapiens, ZR75; ZR-75-1 cells; mean of replicate experiments; read-out: Cytotoxicity IC50 (nM), ZR-75-1 (FR^neg, MSLN^neg, her2^med)
Experimental: as §1

NUGC3 cells = experiment: Crystal Violet cytotoxicity assay (Example 4), NUGC3; assay type: cell-based, human; settings: Homo sapiens, NUGC-3; NUGC3-Luc cells; mean of replicate experiments; read-out: Cytotoxicity IC50 (nM), NUGC3-Luc (FR^neg, MSLN^neg, her2^neg)
Experimental: as §1

in vivo [3] = settings: female, NMRI nu/nu, mouse, iv
Experimental: (§2) Tumor fragments were implanted subcutaneously into the left flank of 40 NMRI nu/nu female mice, and tumor volume was monitored. Mice with a tumor volume of 100-160 mm^3 were randomized into one of four groups (Groups A-D, Table 39). […] Each group consisted of 8 animals. The day of randomization was designated as Day 0 of the experiment.
(§3) Tumor growth was evaluated by the measurement of two perpendicular diameters twice weekly, and tumor volume (TV), relative tumor volume (RTV) and treated/control (T/C) values were calculated. Body weight was also evaluated twice weekly as a parameter for toxicity, with the calculation of the body weight per group and body weight changes (BWC) relative to the start of treatment. Animals were sacrificed when the individual tumor volume exceeded 1 cm^3, or at the end of the study.

in vivo [4] = settings: female, NMRI nu/nu, mouse, iv; remark: listed apart in the source
Experimental: as §2, §3

[5] = tested on: Endo-12961 endometrial cancer patient-derived xenograft; experiment: Endometrial cancer PDx model Endo-12961; settings: for anti-tumor activity, in words: single i.v. dose
Experimental: as §2, §3

[6] = tested on: Endo-10590 endometrial cancer patient-derived xenograft; experiment: Endometrial cancer PDx model Endo-10590; settings: for anti-tumor activity, in words: single i.v. dose
Experimental: as §2, §3

[7] = MORAb-202 5 mg/kg or eribulin 3.2 mg/kg

With `C=C1C[C@@H]2CC[C@@]34C[C@H]5O[C@H]6[C@@H](O3)[C@H]3O[C@H](CC[C@@H]3O[C@H]6[C@H]5O4)CC(=O)C[C@@H]3[C@@H](OC)[C@@H](C[C@H](O)CN)O[C@H]3C[C@H]3O[C@@H](CC[C@@H]1O2)C[C@@H](C)C3=C` [eribulin] the EC50 (HL-60 cells) was 0.17 nM, the “clinical finding, in words” value ([1]; 3.2 mg/kg q4dx3, after the second dose) was “piloerection in all three mice” and the “body weight loss of individual mouse” value ([1]; 3.2 mg/kg q4dx3, after the third dose) was 17% and 8%. The “toxicity, in words” value ([1]; 3.2 mg/kg) was “severe weight loss”, the “toxicity, in words” value ([1]; doses up to 1.6 mg/kg) was “no toxicity” and the “body weight loss or clinical findings, in words” value ([1]; doses up to 1.6 mg/kg, q4dx3, i.v.) was “No significant body weight loss or clinical findings indicating toxicity”. The “gross organ changes at necropsy, in words” value ([1]; mouse, in vivo) was “No gross changes”, the MTD ([1]; mouse, in vivo, iv, q4dx3, i.v., CD-1 mice) was 1.6 mg/kg and the “Percentage of live cells, Pericytes” value ([2]; PBS 14.6%) was 25.8%. The “Percentage of live cells, Adipocytes” value ([2]; PBS […]) was 2.68%, the “Percentage of live cells, MSCs” value ([2]; PBS […]) was 29.9% and the IC50 (IGROV1 cells) was 0.32 nM. It also gave an IC50 (NCI-H2110 cells) of 0.199 nM, an IC50 (A431 cells) of 0.653 nM and an IC50 (NCI-N87 cells) of 0.257 nM. It also gave an IC50 (BT-474 cells) of 0.151 nM, an IC50 (ZR-75 cells) of 0.236 nM and an IC50 (NUGC3 cells) of 0.445 nM. For the same compound, the MTD (in vivo [3]) was 3.2 mg/kg, the MTD (in vivo [4]) was 3.2 mg/kg and the “tumor re-growth during the study, in words” value [5, 7] was “began to re-grow”. For the same compound, the “anti-tumor activity, in words” value [5, 7] was “significant anti-tumor activity”, the “anti-tumor activity, in words” value ([5]; eribulin 0.1 mg/kg) was “no significant anti-tumor activity” and the “effect on body weight, in words” value ([5]; first week post-treatment) was “temporarily affected body weight”. For the same compound, the “tumor re-growth during the study, in words” value [6, 7] was “began to re-grow”, the “anti-tumor activity, in words” value [6, 7] was “significant anti-tumor activity” and the “anti-tumor activity, in words” value ([6]; eribulin 0.1 mg/kg) was “no significant anti-tumor activity”. For the same compound, the “effect on body weight, in words” value ([6]; first week post-treatment) was “temporarily affected body weight”.
